Legend:
Type in all cases: cell-based
BRAF V600E = molecular target: T1, BRAF V600E (Homo sapiens, UniProt P15056, V600E); experiment: BRAF HiBiT degradation assay, C-terminal HiBiT-tagged BRAF V600E A375 cells (clone 1F10), Nano-Glo HiBiT Lytic assay; conditions: for Dmax: A-375
T1 construct: endogenous C-terminal HiBiT fusion tag on BRAF V600E allele; endogenous in cells; host or cells: A375 clone 1F10 (CRISPR-Cas9 knock-in of the HiBiT tag; parental A375 from ATCC)
Procedure, shortened: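 Endogenous BRAF V600E-HiBiT A375 (1F10), 10,000 cells/well, 24 h preculture; cpd 11-pt, 1 μM–0.01 nM half-log, n=2, 0.2% DMSO; HiBiT lytic detection 10 min RT; DC50 = fitted conc at Y=50; Obs. Dmax vs DMSO.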

BRAF G466V = molecular target: T2, BRAF G466V (Homo sapiens, UniProt P15056, G466V); experiment: BRAF HiBiT degradation assay, C-terminal HiBiT-tagged BRAF G466V overexpressed in HCT-116 BRAF−/− cells (clone 8), Nano-Glo HiBiT Lytic assay; conditions: BRAF G466V; for DC50: DC50 at 50%: fitted conc. at Y=50; for Dmax: HCT-116, percentage protein degraded at maximal compound effect relative to DMSO
T2 construct: Horizon Discovery (HCT-116 BRAF−/− cells); host or cells: HCT-116 BRAF−/− cells, clone 8, lentiviral transduction
From the text: (§1) An A375 cell line expressing a homozygous V600E mutation was purchased from ATCC (Manassas, VA, USA). An A375 clone 1F10 cell line with an endogenous C-terminal HiBiT fusion tag on BRAF V600E allele was generated internally using CRISPR-Cas9 technology and cultured in DMEM, high glucose supplemented with 10% FBS and 1× GlutaMAX. A HCT-116 BRAF−/− cell line overexpressing the C-terminal HiBiT-tagged G466V, G469A, and D594G mutants were generated by lentiviral transduction, externally at Biosettia Inc (San Diego, CA, USA). The stably transfected cells were cultured in RPMI media supplemented with 10% FBS, 1× GlutaMAX, and 0.25 μg/ml puromycin. DMEM medium, RPMI 1640 medium, GlutaMAX, fetal bovine serum (FBS), and puromycin were purchased from Gibco (Grand Island, NY, USA). HCT-116 BRAF−/− cells were purchased from Horizon Discovery (Waterbeach, UK).
(§2) The C-terminal HiBiT tagged mutant BRAF G466V, G469A, and D594G overexpressed in HCT-116 BRAF−/− cells (monoclonal cell line, cell clones 8, 34, and 63, respectively) were seeded at the density of 3,000 cells/well in 30 μL media (RPMI supplemented with 10% FBS and 1× GlutaMAX) in white opaque 384-well plates (Corning #3570) from column 1 to column 23. Wildtype HCT-116 BRAF cells were seeded in column 24 at the same cell density in 30 μL media. Cells were incubated at 37° C. with 5% CO2 for 24 h.
(§3) Intermediate compound dilution series (5-point, ranging from 5 mM to 0.5 μM, 10-fold dilutions in DMSO) were prepared in a source plate (Beckman Coulter cat. no. 001-16128). Final compound dilution series (11-point, ranging from 1 μM to 0.01 nM, half-log dilutions in DMSO) were stamped into the assay plate (Corning #3570, column 1-11 and 12-22) using the Echo Acoustic Liquid Handler (Beckman Coulter). Each compound was plated in duplicate, and the total volume of compound DMSO solution was 60 nL/well (0.2% final DMSO concentration). DMSO was included in wells A23-L23 and A24-L24. The DMSO-treated HiBiT-tagged samples served as Negative Control (NC) and the DMSO-treated wildtype samples served as Background Control (BC) for the HiBiT assay.
(§4) HiBiT signal was measured by a Nano-Glo HiBiT Lytic assay (Promega cat. no. N3050). HiBiT lytic detection reagent (Nano-Glo HiBiT Lytic Buffer with 1:50 Nano-Glo HiBiT Lytic Substrate and 1:100 LgBiT Protein, 40 μL) was added using Bravo. The mixture was incubated at room temperature, in the dark, and with gentle shaking for 10 min. Luminesce units (LU) were read on an EnVision plate reader 2105 (Perkin Elmer).
(§5) Percent protein remaining and viability remaining per sample were calculated as follows: […]
(§6) % Protein remaining values were plotted as a function of compound concentration. XC50 (DC50) values were determined by fitting curves using the following equation:
(§7) For the HiBiT degradation assay, the key parameters reported include: • The dose of compound that produces 50% degradation (DC50 at 50%): • DC50 at 50%: the Fitted X value (Conc.) at Y=50 (response) • Observed Dmax (Obs. Dmax) is the percentage protein degraded at maximal compound effect relative to DMSO-treated control: […]

BRAF G469A = molecular target: T3, BRAF G469A (Homo sapiens, UniProt P15056, G469A); experiment: BRAF HiBiT degradation assay, C-terminal HiBiT-tagged BRAF G469A overexpressed in HCT-116 BRAF−/− cells (clone 34), Nano-Glo HiBiT Lytic assay; conditions: Class 2, BRAF G469A; for DC50: DC50 at 50%: fitted conc. at Y=50; for Dmax: HCT-116, percentage protein degraded at maximal compound effect relative to DMSO
T3 construct: Horizon Discovery (HCT-116 BRAF−/− cells); host or cells: HCT-116 BRAF−/− cells, clone 34, lentiviral transduction
From the text: as §1, §2, §3, §4, §5, §6, §7

BRAF D594G = molecular target: T4, BRAF D594G (Homo sapiens, UniProt P15056, D594G); experiment: BRAF HiBiT degradation assay, C-terminal HiBiT-tagged BRAF D594G overexpressed in HCT-116 BRAF−/− cells (clone 63), Nano-Glo HiBiT Lytic assay; conditions: BRAF D594G; for DC50: DC50 at 50%: fitted conc. at Y=50; for Dmax: HCT-116, percentage protein degraded at maximal compound effect relative to DMSO
T4 construct: Horizon Discovery (HCT-116 BRAF−/− cells); host or cells: HCT-116 BRAF−/− cells, clone 63, lentiviral transduction
From the text: as §1, §2, §3, §4, §5, §6, §7

[1] = A375 (BRAF V600E), DC50 at 50%: fitted conc. at Y=50
[2] = A375 (BRAF V600E), percentage protein degraded at maximal compound effect relative to DMSO
[3] = A375 (BRAF V600E, Class 1), DC50 at 50% degradation
[4] = A375 (BRAF V600E, Class 1), observed Dmax, % protein degraded relative to DMSO control

T2 sequence (P15056 whole entry G466V): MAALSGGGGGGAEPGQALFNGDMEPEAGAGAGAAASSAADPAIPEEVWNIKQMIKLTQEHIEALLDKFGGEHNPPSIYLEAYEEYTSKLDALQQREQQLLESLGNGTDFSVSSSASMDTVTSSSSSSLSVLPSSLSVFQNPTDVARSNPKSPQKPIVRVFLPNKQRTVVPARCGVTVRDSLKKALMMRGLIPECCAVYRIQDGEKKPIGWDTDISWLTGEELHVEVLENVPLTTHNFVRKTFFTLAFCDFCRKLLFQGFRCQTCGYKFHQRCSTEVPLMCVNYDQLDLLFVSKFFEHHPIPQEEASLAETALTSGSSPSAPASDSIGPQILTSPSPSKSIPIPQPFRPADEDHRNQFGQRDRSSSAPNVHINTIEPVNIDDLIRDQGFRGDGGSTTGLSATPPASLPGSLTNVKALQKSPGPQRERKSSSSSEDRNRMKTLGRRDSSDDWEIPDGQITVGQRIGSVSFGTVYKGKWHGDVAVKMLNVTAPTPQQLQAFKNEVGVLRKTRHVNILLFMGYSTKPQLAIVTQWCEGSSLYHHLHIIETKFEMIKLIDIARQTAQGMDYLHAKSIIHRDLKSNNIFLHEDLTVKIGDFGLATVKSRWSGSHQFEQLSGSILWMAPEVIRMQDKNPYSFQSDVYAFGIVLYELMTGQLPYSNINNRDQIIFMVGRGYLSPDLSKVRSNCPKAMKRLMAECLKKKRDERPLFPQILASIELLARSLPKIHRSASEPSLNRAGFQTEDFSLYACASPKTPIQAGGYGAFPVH
T1 sequence (P15056 whole entry V600E, the tested form may be a part): as the sequence (P15056 whole entry G466V) above, with V466G, V600E counted along it
T3 sequence (P15056 whole entry G469A): as the sequence (P15056 whole entry G466V) above, with V466G, G469A counted along it
T4 sequence (P15056 whole entry D594G): as the sequence (P15056 whole entry G466V) above, with V466G, D594G counted along it

CCCS(=O)(=O)Nc1cccc(-c2nc(C(C)(C)C)sc2-c2ccnc(Nc3cccc(OC4CCN(CC[C@H]5CCN(c6ccc(C7CCC(=O)NC7=O)cn6)C5)CC4)c3)n2)c1F (mixture of isomers) [Compound 69, N-(3-{2-tert-butyl-5-[2-({3-[(1-{2-[(3S)-1-{5-[(3RS)-2,6-dioxopiperidin-3-yl]pyridin-2-yl}pyrrolidin-3-yl]ethyl}piperidin-4-yl)oxy]phenyl}amino)pyrimidin-4-yl]-1,3-thiazol-4-yl}-2-fluorophenyl)propane-1-sulfonamide]
DC50 (BRAF V600E; [1]): 10 to 50 nM | Dmax (BRAF V600E; [2]): > 70% | DC50 (BRAF G466V): > 500 nM | Dmax (BRAF G466V): 30 to 70% | DC50 (BRAF G469A): > 500 nM | Dmax (BRAF G469A): < 30% | DC50 (BRAF D594G): > 500 nM | Dmax (BRAF D594G): 30 to 70%

CCCS(=O)(=O)Nc1cccc(-c2nc(C(C)(C)C)sc2-c2ccnc(Nc3cccc(OC4CCN(CC[C@@H]5CCN(c6ccc(C7CCC(=O)NC7=O)cn6)C5)CC4)c3)n2)c1F (mixture of isomers) [Compound 70, N-(3-{2-tert-butyl-5-[2-({3-[(1-{2-[(3R)-1-{5-[(3RS)-2,6-dioxopiperidin-3-yl]pyridin-2-yl}pyrrolidin-3-yl]ethyl}piperidin-4-yl)oxy]phenyl}amino)pyrimidin-4-yl]-1,3-thiazol-4-yl}-2-fluorophenyl)propane-1-sulfonamide]
DC50 (BRAF V600E; [1]): 50 to 500 nM | Dmax (BRAF V600E; [2]): 30 to 70% | DC50 (BRAF G466V): > 500 nM | Dmax (BRAF G466V): < 30% | DC50 (BRAF G469A): > 500 nM | Dmax (BRAF G469A): < 30% | DC50 (BRAF D594G): > 500 nM | Dmax (BRAF D594G): 30 to 70%

CCCS(=O)(=O)Nc1cccc(-c2nc(C(C)(C)C)sc2-c2ccnc(Nc3cccc(C4CCN(CC[C@@H]5CCN(c6ccc(C7CCC(=O)NC7=O)cn6)C5)CC4)c3)n2)c1F (mixture of isomers) [Compound 75, N-{3-[2-tert-butyl-5-(2-{[3-(1-{2-[(3R)-1-{5-[(3RS)-2,6-dioxopiperidin-3-yl]pyridin-2-yl}pyrrolidin-3-yl]ethyl}piperidin-4-yl)phenyl]amino}pyrimidin-4-yl)-1,3-thiazol-4-yl]-2-fluorophenyl}propane-1-sulfonamide]
DC50 (BRAF V600E; [1]): 10 to 50 nM | Dmax (BRAF V600E; [2]): > 70% | DC50 (BRAF G466V): > 500 nM | Dmax (BRAF G466V): < 30% | DC50 (BRAF G469A): > 500 nM | Dmax (BRAF G469A): < 30% | DC50 (BRAF D594G): > 500 nM | Dmax (BRAF D594G): < 30%

CCCS(=O)(=O)Nc1cccc(-c2nc(C(C)(C)C)sc2-c2ccnc(Nc3cnn(C4CCN(CC[C@H]5CCN(c6ccc(C7CCC(=O)NC7=O)cn6)C5)CC4)c3)n2)c1F (mixture of isomers) [Compound 77, N-{3-[2-tert-butyl-5-(2-{[1-(1-{2-[(3S)-1-{5-[(3RS)-2,6-dioxopiperidin-3-yl]pyridin-2-yl}pyrrolidin-3-yl]ethyl}piperidin-4-yl)-1H-pyrazol-4-yl]amino}pyrimidin-4-yl)-1,3-thiazol-4-yl]-2-fluorophenyl}propane-1-sulfonamide]
DC50 (BRAF V600E; [1]): 10 to 50 nM | Dmax (BRAF V600E; [2]): 30 to 70% | DC50 (BRAF G466V): > 500 nM | Dmax (BRAF G466V): < 30% | DC50 (BRAF G469A): > 500 nM | Dmax (BRAF G469A): < 30% | DC50 (BRAF D594G): > 500 nM | Dmax (BRAF D594G): 30 to 70%

CCCS(=O)(=O)Nc1cccc(-c2nc(C(C)(C)C)sc2-c2ccnc(Nc3cccc(OC4CCN(C(=O)C[C@@H]5CCN(c6ccc(C7CCC(=O)NC7=O)cc6)C5)CC4)c3)n2)c1F (mixture of isomers) [Compound 92, N-(3-{2-tert-butyl-5-[2-({3-[(1-{2-[(3S)-1-{4-[(3RS)-2,6-dioxopiperidin-3-yl]phenyl}pyrrolidin-3-yl]acetyl}piperidin-4-yl)oxy]phenyl}amino)pyrimidin-4-yl]-1,3-thiazol-4-yl}-2-fluorophenyl)propane-1-sulfonamide]
DC50 (BRAF V600E; [1]): > 500 nM | Dmax (BRAF V600E; [2]): 30 to 70% | DC50 (BRAF G466V): > 500 nM | Dmax (BRAF G466V): < 30% | DC50 (BRAF G469A): > 500 nM | Dmax (BRAF G469A): < 30% | DC50 (BRAF D594G): > 500 nM | Dmax (BRAF D594G): < 30%

CCCS(=O)(=O)Nc1cccc(-c2nc(C3CCN(C(=O)C4CCN(C(=O)C5CCN(c6ccc([C@@H]7CCC(=O)NC7=O)cc6)CC5)CC4)CC3)sc2-c2ccncc2)c1F [Compound 200, N-[3-(2-{1-[1-(1-{4-[(3S)-2,6-dioxopiperidin-3-yl]phenyl}piperidine-4-carbonyl)piperidine-4-carbonyl]piperidin-4-yl}-5-(pyridin-4-yl)-1,3-thiazol-4-yl)-2-fluorophenyl]propane-1-sulfonamide]
DC50 (BRAF V600E; [1]): 10 to 50 nM | Dmax (BRAF V600E; [2]): > 70%

CCCS(=O)(=O)Nc1cccc(-c2nc(C3CCN(Cc4ccc(C(=O)N[C@@H]5CCC(=O)NC5=O)cc4)CC3)sc2-c2ccnc(N)n2)c1F [Compound 255, 4-({4-[5-(2-aminopyrimidin-4-yl)-4-[2-fluoro-3-(propane-1-sulfonamido)phenyl]-1,3-thiazol-2-yl]piperidin-1-yl}methyl)-N-[(3R)-2,6-dioxopiperidin-3-yl]benzamide]
DC50 (BRAF V600E; [3]): > 500 nM | Dmax (BRAF V600E; [4]): < 30%

O=C1CC[C@H](c2ccc(N3CCC(CN4CCN(c5ccc(-n6cc(-c7cc(F)cc(NS(=O)(=O)N8CCCC8)c7F)c(-c7ccncc7)n6)c(F)c5)CC4)CC3)cc2)C(=O)N1 [Compound 340, N-{3-[1-(4-{4-[(1-{4-[(3R)-2,6-dioxopiperidin-3-yl]phenyl}piperidin-4-yl)methyl]piperazin-1-yl}-2-fluorophenyl)-3-(pyridin-4-yl)-1H-pyrazol-4-yl]-2,5-difluorophenyl}pyrrolidine-1-sulfonamide]
DC50 (BRAF V600E; [3]): < 10 nM | Dmax (BRAF V600E; [4]): > 70%

O=C1CC[C@H](c2ccc(N3CCC(CN4CCN(c5cnc(-n6cc(-c7cc(F)cc(NS(=O)(=O)N8CCCC8)c7F)c(-c7ccncc7)n6)nc5)CC4)CC3)cc2)C(=O)N1 [Compound 342, N-{3-[1-(5-{4-[(1-{4-[(3R)-2,6-dioxopiperidin-3-yl]phenyl}piperidin-4-yl)methyl]piperazin-1-yl}pyrimidin-2-yl)-3-(pyridin-4-yl)-1H-pyrazol-4-yl]-2,5-difluorophenyl}pyrrolidine-1-sulfonamide]
DC50 (BRAF V600E; [3]): < 10 nM | Dmax (BRAF V600E; [4]): > 70%
